According to ChEMBL document CHEMBL3046237, “Efficacy of methyl nonyl ketone as an in-soil repellent for common voles (Microtus arvalis)” (2013):
Activity calls are given as the source filed them. No cut-off for these calls is given here.

Columns and labels:
[1] = test system: Microtus arvalis; assay: In-soil repellent activity against Microtus arvalis (Common vole) in forage grassland assessed as decrease in number of active burrow entrances at 3.97% ai applied as foam in field measured after 4-5 days of treatment; format: functional, organism-based
[2] = test system: Microtus arvalis; assay: In-soil repellent activity against Microtus arvalis (Common vole) in forage grassland assessed as decrease in number of active burrow entrances at 3.97% ai applied as foam in field measured after 24 hr relative to control; format: functional
[3] = test system: Microtus arvalis; assay: In-soil repellent activity against Microtus arvalis (Common vole) in forage grassland assessed as decrease in number of active burrow entrances at 3.97% ai applied as foam in field measured after 6 days of treatment relative to untreated control; format: functional
[4] = test system: Microtus arvalis; assay: In-soil repellent activity against Microtus arvalis (Common vole) in forage grassland assessed as decrease in number of active burrow entrances at 3.97% ai applied as foam in field measured after 3 days of treatment; format: functional, organism-based
[5] = test system: Microtus arvalis; assay: In-soil repellent activity against Microtus arvalis (Common vole) in forage grassland assessed as decrease in number of active burrow entrances at 3.97% ai applied as foam in field for first 3 days and reapplied on day 10 measured on day 14; format: functional, organism-based
[6] = test system: Microtus arvalis; assay: Decrease in reopening of compound treated burrow entrances in forage grassland by Microtus arvalis (Common vole) assessed as increase in number of new burrow entrances at 3.97% ai applied as foam in field measured after 5 days of treatment (reference value: 40 +/-19.4%); format: functional; design: scale not given: the % may be the effect or the level left
[7] = test system: Microtus arvalis; assay: In-soil repellent activity against Microtus arvalis (Common vole) in forage grassland assessed as decrease in number of active burrow entrances at 3.97% ai applied as foam in field for first 3 days and reapplied on day 10 measured at 24 hr after last drug dosage; format: functional, organism-based
[8] = test system: Microtus arvalis; assay: In-soil repellent activity against Microtus arvalis (Common vole) in forage grassland assessed as decrease in number of active burrow entrances at 3.97% ai applied as foam in field for 3 days measured on day 7; format: functional, organism-based
[9] = test system: Microtus arvalis; assay: In-soil repellent activity against Microtus arvalis (Common vole) in forage grassland assessed as decrease in number of active burrow entrances at 3.97% ai applied as foam in field measured after 6 days of treatment (reference value: 48 +/-12%); format: functional
[10] = test system: Microtus arvalis; assay: In-soil repellent activity against Microtus arvalis (Common vole) in forage grassland assessed as decrease in number of active burrow entrances at 3.97% ai applied as foam in field measured after 48 hr relative to control; format: functional
[11] = test system: Microtus arvalis; assay: In-soil repellent activity against Microtus arvalis (Common vole) in forage grassland assessed as decrease in number of active burrow entrances at 3.97% ai applied as foam in field for 3 days measured on day 10; format: functional, organism-based
[12] = test system: Microtus arvalis; assay: Decrease in reopening of compound treated burrow entrances in forage grassland by Microtus arvalis (Common vole) assessed as increase in number of new burrow entrances at 3.97% ai applied as foam in field (reference value: 41 +/-21.1%); format: functional; design: scale not given: the % may be the effect or the level left

SMILES: CCCCCCCCCC(C)=O [METHYL NONYL KETONE]
- inhibition [1]: Active
- fold change (FC) [2]: 3
- fold change (FC) [3]: 2
- inhibition [4]: Active
- inhibition [5]: Active
- Activity [6]: 95%
- inhibition [7]: Active
- inhibition [8]: Active
- inhibition (INH) [9]: 92%
- fold change (FC) [10]: 2
- inhibition [11]: inactive
- Activity [12]: 73%
